ChEMBL document CHEMBL1146095, “Modeling the preferred shapes of polyamine transporter ligands and dihydromotuporamine-C mimics: shovel versus hoe” (J Med Chem, 2006)

Legend:
[1] = system: Mammalian polyamine transporter; experiment: Inhibition of [14C]spermidine uptake into polyamine transporter expressed in L1210 cells; format: functional, cell-based, Mus musculus
CHO-MG = experiment: Cytotoxicity against CHO-MG cell line; format: functional, cell-based; conditions: Cricetulus griseus
CHO = experiment: Cytotoxicity against CHO cell line; format: functional, cell-based; conditions: Cricetulus griseus
[2] = Selectivity for CHO cells over CHO-MG cells; format: functional

CCN(CCCNCCCN)Cc1c2ccccc2cc2ccccc12.Cl.Cl.Cl
Ki [1]: 23.5 µM | IC50 (CHO-MG): 4 µM | IC50 (CHO): 5.3 µM | Ratio IC50 [2]: 0.8
